Experimental data taken from US9512407B2, “Cells and methods for obtaining them” (GENOME RESEARCH LIMITED, priority 2009, dated 2016).
“Also recorded” adds a separate entry of the source.

Key:
Oct4 locus = assay: iPSC quality by Puro resistance and GFP expression from the Oct4 locus (flow cytometry); type: cell-based, mouse; conditions: for quality of iPS cells, measured by FACS: agonist with four Yamanaka factors, up to 8 days
Description: (§1) ES cell pluripotency requires proper levels of Oct4 (Pou5f1) expression (32), and activation of Oct4 is known to be a crucial event in reprogramming (3). To monitor activation of the endogenous Oct4 locus in reprogramming and to allow unbiased assessment of iPSC quality, we made an Oct4 reporter mouse line where the IRES-Puro-GFP cassette was targeted to the 3′UTR of the Oct4 locus (FIG. 6B). The targeted ES cells were resistant to 2.0 μg/ml Puromycin (Puro) selection. These ES cells were not visibly green under fluorescent microscope but could be distinguished by flow cytometry (FIG. 6C). […] MEFs from the Oct4 reporter mice were thus used in all the MEF reprogramming experiments, and consequently, reprogramming and iPSC quality could be conveniently monitored and assessed by either Puro resistance or GFP expression in iPSCs.
Expression of the endogenous Oct4 is unstable in iPSCs reprogrammed by the four Yamanaka factors (11). […] Further analysis confirmed their partially reprogrammed status: low levels of endogenous pluripotency gene expression (FIG. 1E), and retention of substantial DNA methylation in the differentially methylated regions (DMRs) in the Nanog and Rex1 promoters (FIG. 1F). On the other hand, a small number of colonies were obtained which were resistant to 2.0 μg/ml Puro, and were similar to ES cells regarding pluripotency gene expression, demethylation at the Nanog and Rex1 promoters, and GFP expression (FIG. 1E-F and FIG. 6E). […] In subsequent experiments, we used resistance to 2.0 μg/ml Puro or GFP expression as surrogate criteria for pluripotency quality of mouse primary iPSCs reprogrammed from Oct4-Puro-GFP MEFs.
Mouse iPSCs growing in 96 well feeder plates were trypsinized and resuspended in M15. iPSCs were spun down at 1,000 rpm for 3 minutes, and the medium was removed by putting the plate upside down on tissue. iPSCs were resuspended in PBS and analyzed by Cytomics FC-500 (Beckman Coulter).
We cloned the four Yamanaka factors into the PB transposons separately where expression of each cDNA was controlled by the LTR of MSCV (PB-MSCV-cDNAs, FIG. 6c). These four transposons and the PB transposase (PBase) plasmid were subsequently transfected into Oct4-IRES-Puro-Egfp MEFs. iPS cell colonies resembling those of regular ES cells appeared in three weeks. Most iPS colonies survived 1.0 or 1.5 μg/ml Puro but very few were able to grow in 2.0 μg/ml Puro. […] RT-PCR and DMR sequencing confirmed that these iPS clones growing in 2.0 μg/mL Puro were more similar to regular ES cells than those clones selected by 1.0 or 1.5 μg/mL Puro in terms of pluripotent gene expression and DNA methylation at promoters of these genes (data not shown). […] We thus used 2.0 μg/mL or higher concentration of Puro in combination of flow cytometry to quantitatively evaluate iPS cell quality in the subsequent experiments.

Oct4-IRES-Puro-Egfp MEFs = assay: Reprogramming of Oct4 reporter MEFs to iPSCs by PB transposition of Yamanaka factors (colony number); type: cell-based, mouse
Description: To investigate the role of RA signalling in reprogramming, we cloned cDNAs of Oct4, Sox2, Klf4, cMyc, Rara and Rarg into a PB-MSCV vector where expression of the cDNAs was controlled by the MSCV LTR (FIG. 6A). Although exogenous c-Myc is not essential for reprogramming, omission of it reduces reprogramming efficiency and delays the process (23, 30). The individual PB-MSCV-cDNA vectors were co-transfected with a PB transposase plasmid into MEFs (FIG. 1A). PB transposition facilitates efficient integration of the PB transposon into the genome, thus ensuring stable expression of the cDNAs (31).
as §1
MEFs were prepared from 12.5 d.p.c. Oct4-IRES-Puro-Egfp embryos. To reduce embryo-to-embryo difference, MEFs from several embryos with the same genotype were mixed together for expansion in M10 media. MEFs were passaged once before they were counted, aliquoted and frozen down. Before electroporation, 1×10^6 MEFs were plated onto one gelatinized 15-cm tissue culture plate. When MEFs were 70-80% confluent, they were typsinized and collected for electroporation. M10: knockout DMEM, 10% foetal bovine serum (FBS, Hyclone), 1×GPS, 1× non-essential amino acids (NEAA, Invitrogen).
MEFs transfection was performed using an Amaxa machine (Lonza) according to the manufacturer's protocol (program A-023). After electroporation, MEFs were seeded in M15 plus LIF on STO feeders. For Tet-On experiments, M15 containing Doxycycline (1.0 μg/ml) was added 24 hours after transfection and was changed every other day. iPSC colonies were usually picked at day 7 to day 10 to 96 well plates and cells were expanded according to standard mouse ES cell culture conditions.
Mouse and human iPSC colonies were visualized by alkaline phosphatase staining using the Leukocyte Alkaline Phosphatase kit (Sigma).
FIG. 1. RA signalling in reprogramming. A. Schematic of the reprogramming strategy by piggyBac (PB) transposition. Oct4 reporter MEFs were transfected with the PB-MSCV-cDNA transposon and transposase plasmids, and were plated directly onto STO feeders. ES-like colonies usually appeared in three weeks. M10 and M15 are media for MEFs and ES cells, respectively. B-C. Expressing Rara or Rarg, together with the four Yamanaka factors, drastically promoted reprogramming while inhibiting RA signalling by expressing Rara-DN blocked reprogramming. iPSC colonies were visualized by alkaline phosphatase staining. The reprogramming control was PB-PGK-Neo plus Yamanaka factors. **: P<0.005; ***: P<0.0005. FL: full-length cDNA; DN: dominant-negative form. D. Temporal requirement of RA signalling in reprogramming. Agonist of Rarg (CD437) was added at various stages of reprogramming. […]

[1] = tested on: Rex1-Puro-IRES-Egfp knock-in mouse ES cell line; assay: RA induced ES cell differentiation, Puro selection; type: cell-based; conditions: all-trans retinoic acid; antagonist added or cDNA over-expressed
Description: Insertion of this transposon into the mouse genome can either up-regulate genes near the insertion sites or disrupt them, depending on the structure of the insertion allele. To efficiently eliminate differentiated ES cells in the culture, we targeted the Puro-IRES-Egfp cassette to the Rex1 locus (FIG. 12b). Consequently, undifferentiated ES cells would be resistant to Puromycin (Puro) selection and GFP^+ in flow cytometry, while differentiated cells would be killed by Puro selection and become GFP^− due to rapid lose of Rex1 expression upon differentiation.
A library of mutant ES cells were differentiated with 1.0 μM all-trans retinoic acid (RA) for 4 days and subsequently selected with Puromycin (FIG. 12c). Several Pura^r ES cell clones were identified from independent mutant ES cell pools. Splinkrette PCR analysis identified PB integration sites in genes encoding Rarg, Pparg and Gclc. For Pparg, PB insertion caused over-expression of the entire protein coding sequences. In contrast, Rarg locus had four independent PB insertions, all found in intron 9 (the last intron) (FIG. 12d). These PB insertions caused truncation of Rarg which misses amino acids encoded by exon 10. […] This truncated Rarg likely functioned as a dominant negative form of wild type Rarg (Rarg-DN).
FIG. 12. […]

[2] = tested on: Dox-independent human iPSCs; assay: Signalling dependency of human iPSCs (growth, qRT-PCR); type: cell-based; conditions: KSR-2i-LIF media
Description: In contrast to dependence on Lif/Jak/Stat pathway for pluripotency maintenance in mouse ES cells, conventional human ES cells derived from embryos are cultured in media containing FGF2 (basic FGF), and LIF alone is insufficient to maintain pluripotency (44, 45). […] Conventional human ES cells are resistant to JAK inhibitor (JAKi) but are differentiated in the presence of BMP4. […] Finally, compared to human ES cells, our human iPSCs expressed lower levels of lineage specific genes such as PAX6, GATA6, and SOX17 in KSR-2i-LIF media (FIG. 5H).
Human iPSCs reprogrammed by PB-CAG vectors were cultured in M15 media, with […] human recombinant LIF. Human iPSCs reprogrammed by PB-TRE vectors were maintained in DMEM/F12 with 1×GPS (Invitrogen), 20% Knockout Serum Replacement (Invitrogen), 1×NEAA, 0.1 mM β-mercaptoethanol (β-ME, Sigma) and two inhibitors, CHIR99021 (5 μM) and PD0325901 (1 μM).
RNA was isolated using the RNeasy Mini Kit (Qiagen). The samples were subsequently quantified and treated with gDNA WipeOut. First-strand cDNA was prepared using the QuantiTect Reverse Transcription Kit (Qiagen). For each RT-PCR reaction, we used 50-100 ng of cDNA and primers listed in Supplementary Table 5. Standard PCR conditions were: 94° C. for 30 s, 60° C. for 30 s, 68° C. for 30 s; X 30 cycles. For real-time PCR, we used Taqman Gene Expression Assays. Taqman probes were either purchased from Applied Biosciences (Supplementary Table 6). All quantitative PCR was performed in a […] Fast Real-Time PCR System (Applied Biosciences). Mouse gene expression was determined relative to mouse Gadph using the ΔCt method. Human gene expression was determined relative to human GADPH gene using the ΔCt method.
FIG. 5. Production and characterization of Dox-independent unique human iPSCs. A. Conservation of RAREoct sequence in several mammalian species. B. Reprogramming HDFn cells using the Tet-On six-factor platform. PB-TRE-cDNA transposon, PB-CAG-rtTA and transposase plasmids were transfected into HDFs which were plated onto STO feeders. Dox (2.0 μg/ml) was added 24 hours post transfection. Dox induction usually lasted for 15-20 days. Colonies were picked for expansion at up to 30 days after transfection. Alternatively, immediately once Dox was removed, colonies were trypsinized and re-plated to a new feeder plate for secondary colony formation. C. Typical human iPSC colony morphology and AP staining. Scale bars: 10.0 μm. D. qRT-PCR analysis of pluripotency genes in parental HDFn, human iPSCs and H1 hESC cells. HiPS15-5 and -10 were two Dox-independent iPSC lines generated from one transfection. […] H. Signalling dependency of human iPSCs measured by gene expression (qRT-PCR). […] Quantitative analysis of gene expression was performed relative to GADPH. […]

## CC1(C)CCC(C)(C)c2cc(C(=O)Nc3ccc(C(=O)O)cc3)ccc21 [Am580]
Oct4 locus
  quality of iPS cells, measured by FACS: little effect
Oct4-IRES-Puro-Egfp MEFs; administrated for 8 days, with four Yamanaka factors
  reprogramming efficiency: improved reprogramming efficiency

## O=C(O)c1ccc2cc(-c3ccc(O)c(C45CC6CC(CC(C6)C4)C5)c3)ccc2c1 [CD437]
Oct4 locus; CD437 day 1-4
  GFP expression from the Oct4 locus in colonies (iPSC quality): expressed GFP; also recorded: Improvement of iPSC quality
Oct4 locus; CD437 day 1-4, 2.0 μg/ml Puro
  survival of Puro selection: survived 2.0 μg/ml Puro selection
Oct4 locus
  quality of iPS cells, measured by FACS: significantly improved
Oct4-IRES-Puro-Egfp MEFs; 100 nM for up to eight day, with four Yamanaka factors
  iPS cell colony number: greatly increased
Oct4-IRES-Puro-Egfp MEFs; added to culture media at recommended concentration for 4 or 8 days, with four Yamanaka factors
  reprogramming of MEFs to iPSCs: drastically increased
Oct4-IRES-Puro-Egfp MEFs; treatment beyond 8 days (day 1-12)
  iPS colony number: substantially reduced
Oct4-IRES-Puro-Egfp MEFs; treatment beyond 8 days after transfection
  reprogramming efficiency: reduced reprogramming efficiency

## COCCOCOc1cc2ccc(-c3ccc(C(=O)O)cc3)cc2cc1C12CC3CC(CC(C3)C1)C2 [CD2665]
Oct4 locus; 10 μM, two independent partially reprogrammed clones
  quality of partially reprogrammed clones: significantly improved
Oct4 locus; 10 μM, used together with 5-Aza
  effect on quality of partially reprogrammed clones: more obvious
Oct4 locus; after treatment for 4 days, with or without 5-Aza
  GFP status of partially reprogrammed clones: largely GFP negative
[1]
  ES cell differentiation induced by RA: block ES cell differentiation

## CC(C)(C)c1nc2c3cc[nH]c(=O)c3c3cc(F)ccc3c2[nH]1 [JAK inhibitor]
[2]
  growth and pluripotency gene expression of human iPSCs in the presence of the agent: lost expression of OCT4 and NANOG and were rapidly differentiated

## CCCCCCCOc1cc2c(cc1/C(C)=C/c1ccc(C(=O)O)cc1)C(C)(C)CCS2(=O)=O [Ro-41-5253]
[1]
  ES cell differentiation induced by RA: block ES cell differentiation

## Cc1c[nH]c(/C=C2\C(=O)Nc3ccccc32)c1CCC(=O)O [SU54021]
[2]
  growth and pluripotency gene expression of human iPSCs in the presence of the agent: grew well and kept pluripotency gene expression
[2]; listed as FGFRi
  growth and pluripotency gene expression of human iPSCs in the presence of the agent: Robust expression of pluripotency genes

## BMP4: BMP4 added to human iPSC culture
[2]
  growth and pluripotency gene expression of human iPSCs in the presence of the agent: proliferated well
